Results taken from US11339130B1 (Blade Therapeutics, Inc., priority 2016, dated 2022).
Counter-ions that a name gives are not always drawn.

What was measured:
Human Calpain 1/NS1 = target: T1, Human Calpain 1/NS1 (Homo sapiens, UniProt P07384); test: Calpain inhibition continuous fluorescence (FRET) assay, Human Calpain 1/NS1; assay type: biochemical; settings: read-out: Human Calpain 1/NS1 IC50
T1 sequence (P07384 1-714): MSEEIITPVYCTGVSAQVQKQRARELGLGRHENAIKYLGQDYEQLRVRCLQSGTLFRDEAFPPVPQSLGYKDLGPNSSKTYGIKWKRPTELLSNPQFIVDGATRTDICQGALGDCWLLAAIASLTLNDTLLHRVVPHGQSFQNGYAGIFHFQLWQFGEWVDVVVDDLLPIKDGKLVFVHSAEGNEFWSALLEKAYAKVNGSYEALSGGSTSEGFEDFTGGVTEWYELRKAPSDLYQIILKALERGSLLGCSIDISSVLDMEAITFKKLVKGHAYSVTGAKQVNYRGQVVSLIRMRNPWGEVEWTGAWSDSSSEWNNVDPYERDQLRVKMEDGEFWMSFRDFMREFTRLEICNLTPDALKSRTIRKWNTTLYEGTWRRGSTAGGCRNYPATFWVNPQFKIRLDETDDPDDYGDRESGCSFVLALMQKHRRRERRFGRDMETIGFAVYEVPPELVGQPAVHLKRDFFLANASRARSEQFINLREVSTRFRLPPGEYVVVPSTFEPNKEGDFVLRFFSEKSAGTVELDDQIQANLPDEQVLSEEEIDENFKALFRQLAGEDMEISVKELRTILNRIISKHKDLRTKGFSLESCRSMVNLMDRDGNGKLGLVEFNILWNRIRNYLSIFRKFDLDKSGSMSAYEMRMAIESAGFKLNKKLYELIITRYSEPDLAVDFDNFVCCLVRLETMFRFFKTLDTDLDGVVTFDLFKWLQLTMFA
T1 sequence (P04632 1-268 partner): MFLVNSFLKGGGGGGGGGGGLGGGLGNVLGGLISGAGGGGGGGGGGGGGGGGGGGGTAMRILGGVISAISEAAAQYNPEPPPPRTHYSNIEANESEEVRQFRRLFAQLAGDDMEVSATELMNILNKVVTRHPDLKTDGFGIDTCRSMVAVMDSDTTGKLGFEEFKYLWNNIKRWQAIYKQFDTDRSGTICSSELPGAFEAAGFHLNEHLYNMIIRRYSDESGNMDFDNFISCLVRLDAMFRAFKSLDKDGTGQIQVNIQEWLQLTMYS
Procedure, shortened: (§1)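 Buffer 50 mM Tris pH 7.5/100 mM NaCl/1 mM DTT; enzyme + cpd preinc 25C; start w/ FRET substrate + CaCl2; kinetic 490/520 nm, 10 min; slopes 1-5 min; 4-PL IC50.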

Human Calpain 2/NS1 = target: T2, Human Calpain 2/NS1 (Homo sapiens, UniProt P17655); test: Calpain inhibition continuous fluorescence (FRET) assay, Human Calpain 2/NS1; assay type: biochemical; settings: read-out: Human Calpain 2/NS1 IC50
T2 sequence (P17655 1-700): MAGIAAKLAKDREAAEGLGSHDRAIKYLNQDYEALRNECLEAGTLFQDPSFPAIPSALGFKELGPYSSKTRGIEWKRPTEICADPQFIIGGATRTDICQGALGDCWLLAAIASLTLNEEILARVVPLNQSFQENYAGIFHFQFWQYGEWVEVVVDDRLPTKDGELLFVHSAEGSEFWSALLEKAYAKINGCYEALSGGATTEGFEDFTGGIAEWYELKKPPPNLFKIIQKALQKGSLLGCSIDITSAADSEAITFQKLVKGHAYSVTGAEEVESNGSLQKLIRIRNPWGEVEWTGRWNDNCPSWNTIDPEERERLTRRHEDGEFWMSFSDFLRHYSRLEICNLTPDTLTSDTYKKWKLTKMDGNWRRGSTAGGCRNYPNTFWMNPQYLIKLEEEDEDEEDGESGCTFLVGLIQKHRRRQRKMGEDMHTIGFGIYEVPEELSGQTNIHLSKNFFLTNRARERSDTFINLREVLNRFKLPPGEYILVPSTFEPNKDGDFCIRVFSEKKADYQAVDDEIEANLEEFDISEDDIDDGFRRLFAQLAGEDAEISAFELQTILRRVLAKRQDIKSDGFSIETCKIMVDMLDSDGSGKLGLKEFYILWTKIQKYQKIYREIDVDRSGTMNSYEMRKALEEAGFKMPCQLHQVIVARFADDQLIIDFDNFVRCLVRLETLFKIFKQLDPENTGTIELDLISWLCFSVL
T2 sequence (P04632 1-268 partner): T1 sequence (P04632 1-268 partner)
Procedure, shortened: as §1

Human Calpain 9/NS1 = target: T3, Human Calpain 9/NS1 (Homo sapiens, UniProt O14815); test: Calpain inhibition continuous fluorescence (FRET) assay, Human Calpain 9/NS1; assay type: biochemical; settings: read-out: Human Calpain 9/NS1 IC50
T3 sequence (O14815 1-690): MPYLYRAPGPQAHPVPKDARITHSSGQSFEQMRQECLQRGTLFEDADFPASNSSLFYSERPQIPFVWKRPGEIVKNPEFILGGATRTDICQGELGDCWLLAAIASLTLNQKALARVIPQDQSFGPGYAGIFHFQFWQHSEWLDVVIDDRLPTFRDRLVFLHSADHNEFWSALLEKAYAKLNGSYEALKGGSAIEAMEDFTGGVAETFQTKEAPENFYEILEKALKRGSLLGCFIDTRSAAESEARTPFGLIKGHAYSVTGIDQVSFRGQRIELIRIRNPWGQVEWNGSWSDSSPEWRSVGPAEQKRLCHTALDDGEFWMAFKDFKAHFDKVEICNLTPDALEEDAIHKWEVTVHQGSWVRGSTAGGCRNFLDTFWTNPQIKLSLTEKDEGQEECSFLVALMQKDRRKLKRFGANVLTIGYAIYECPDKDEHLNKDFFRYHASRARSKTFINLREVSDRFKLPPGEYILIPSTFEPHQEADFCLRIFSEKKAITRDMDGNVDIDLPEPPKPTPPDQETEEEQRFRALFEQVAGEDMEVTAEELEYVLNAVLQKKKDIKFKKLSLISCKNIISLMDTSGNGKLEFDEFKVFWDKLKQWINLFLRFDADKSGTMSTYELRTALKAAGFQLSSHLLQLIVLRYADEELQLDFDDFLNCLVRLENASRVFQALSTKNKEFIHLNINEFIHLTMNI
T3 sequence (P04632 1-268 partner): T1 sequence (P04632 1-268 partner)
Procedure, shortened: as §1

[1] = test system: Calpain activity in SH-SY5Y cells (SBDP-150); test: SH-SY5Y Spectrin western blot assay (SBDP-150 breakdown product, A23187-induced); assay type: cell-based; settings: Homo sapiens; SH-SY5Y cells, A23187-induced SBDP-150, western blot; read-out: SH-SY5Y Spectrin IC50
[2] = test system: Calpain activity in SH-SY5Y cells; test: SH-SY5Y + AMC fluorescence assay (Suc-LLVY-AMC substrate); assay type: cell-based; settings: read-out: SH-SY5Y + AMC IC50

| SMILES | IC50 (Human Calpain 1/NS1) | IC50 (Human Calpain 2/NS1) | IC50 (Human Calpain 9/NS1) | IC50 [1] | IC50 [2] |
| --- | --- | --- | --- | --- | --- |
| Cn1cc(C(=O)NC(CC(F)(F)F)C(=O)C(N)=O)c(-c2ccccc2)n1 (stereo not drawn) [Compound 424, N-(5-amino-1,1,1-trifluoro-4,5-dioxopentan-3-yl)-1-methyl-3-phenyl-1H-pyrazole-4-carboxamide] | 3 to 10 µM | < 3 µM | < 3 µM | 10 to 25 µM | > 25 µM |
| Cc1cc(C(=O)NC(Cc2ccccc2)C(=O)C(N)=O)c(-n2cc3ccccc3n2)s1 (stereo not drawn) [Compound 428, N-(4-amino-3,4-dioxo-1-phenylbutan-2-yl)-2-(2H-indazol-2-yl)-5-methylthiophene-3-carboxamide] | < 3 µM | < 3 µM | < 3 µM | < 10 µM | > 25 µM |
| Cc1occ(C(=O)N[C@@H](Cc2ccccc2)C(=O)C(N)=O)c1-c1ccccc1 [Compound 430, (S)—N-(4-amino-3,4-dioxo-1-phenylbutan-2-yl)-5-methyl-4-phenylfuran-3-carboxamide] | < 3 µM | < 3 µM | < 3 µM | < 10 µM | < 10 µM |
| Cc1cc(C(=O)NC(Cc2ccccc2)C(=O)C(N)=O)n(-c2ccnc(C(C)C)n2)n1 (stereo not drawn) [Compound 431, N-(4-amino-3,4-dioxo-1-phenylbutan-2-yl)-1-(2-isopropylpyrimidin-4-yl)-3-methyl-1H-pyrazole-5-carboxamide] | < 3 µM | < 3 µM | < 3 µM | > 25 µM | < 10 µM |
| C#Cc1nccc(-n2nc(C)cc2C(=O)NC(Cc2ccccc2)C(=O)C(N)=O)n1 (stereo not drawn) [Compound 432, N-(4-amino-3,4-dioxo-1-phenylbutan-2-yl)-1-(2-ethynylpyrimidin-4-yl)-3-methyl-1H-pyrazole-5-carboxamide] | < 3 µM | < 3 µM | < 3 µM | < 10 µM | < 10 µM |
| C#Cc1nccc(-n2nc(C)cc2C(=O)N[C@@H](Cc2ccccc2)C(=O)CF)n1 [Compound 433, (S)-1-(2-ethynylpyrimidin-4-yl)-N-(4-fluoro-3-oxo-1-phenylbutan-2-yl)-3-methyl-1H-pyrazole-5-carboxamide] | 3 to 10 µM | 3 to 10 µM | > 10 µM | 10 to 25 µM | > 25 µM |
| Cc1cc(C(=O)N[C@@H](Cc2ccccc2)C(=O)C(N)=O)nn1-c1ccnc(Cl)n1 [Compound 435, (S)—N-(4-amino-3,4-dioxo-1-phenylbutan-2-yl)-1-(2-chloropyrimidin-4-yl)-5-methyl-1H-pyrazole-3-carboxamide] | > 10 µM | 3 to 10 µM | 3 to 10 µM | > 25 µM | < 10 µM |
| COc1nccc(-n2nc(C)cc2C(=O)NC(Cc2ccccc2)C(=O)C(N)=O)n1 (stereo not drawn) [Compound 436, N-(4-amino-3,4-dioxo-1-phenylbutan-2-yl)-1-(2-methoxypyrimidin-4-yl)-3-methyl-1H-pyrazole-5-carboxamide] | < 3 µM | < 3 µM | < 3 µM | > 25 µM | < 10 µM |
| Cc1cc(C(=O)NC(Cc2ccccc2)C(=O)C(N)=O)n(-c2ccnc(C#N)n2)n1 (stereo not drawn) [Compound 437, N-(4-amino-3,4-dioxo-1-phenylbutan-2-yl)-1-(2-cyanopyrimidin-4-yl)-3-methyl-1H-pyrazole-5-carboxamide] | < 3 µM | < 3 µM | < 3 µM | > 25 µM | 10 to 25 µM |
| Cc1cc(C(=O)NC(Cc2ccccc2)C(=O)C(N)=O)n(-c2cccc(COCc3ccccc3)c2)n1 (stereo not drawn) [Compound 438, N-(4-amino-3,4-dioxo-1-phenylbutan-2-yl)-1-(3-((benzyloxy)methyl)phenyl)-3-methyl-1H-pyrazole-5-carboxamide] | < 3 µM | < 3 µM | < 3 µM | 10 to 25 µM | 10 to 25 µM |
| Cc1cc(C(=O)NC(Cc2ccccc2)C(=O)C(N)=O)n(-c2ccc(Oc3ccccc3)cc2)n1 (stereo not drawn) [Compound 439, N-(4-Amino-3,4-dioxo-1-phenylbutan-2-yl)-3-methyl-1-(4-phenoxyphenyl)-1H-pyrazole-5-carboxamide] | < 3 µM | < 3 µM | < 3 µM | < 10 µM | > 25 µM |
| Cc1cc(C(=O)NC(Cc2ccccc2)C(=O)C(N)=O)n(-c2ccc(OC3CCOCC3)cc2)n1 (stereo not drawn) [Compound 440, N-(4-amino-3,4-dioxo-1-phenylbutan-2-yl)-3-methyl-1-(4-((tetrahydro-2H-pyran-4-yl)oxy)phenyl)-1H-pyrazole-5-carboxamide] | < 3 µM | < 3 µM | < 3 µM | < 10 µM | > 25 µM |
| CCN(CC)Cc1ccc(Oc2ccc(-n3nc(C)cc3C(=O)NC(Cc3ccccc3)C(=O)C(N)=O)cc2)cc1 (stereo not drawn) [Compound 441, N-(4-amino-3,4-dioxo-1-phenylbutan-2-yl)-1-(4-(4-((diethylamino)methyl)phenoxy)phenyl)-3-methyl-1H-pyrazole-5-carboxamide hydrochloride] | > 10 µM | > 10 µM | > 10 µM | > 25 µM | > 25 µM |
| Cc1cc(C(=O)NC(Cc2ccccc2)C(=O)C(N)=O)n(-c2ccc(CN3CCOCC3)cc2)n1 (stereo not drawn) [Compound 442, N-(4-amino-3,4-dioxo-1-phenylbutan-2-yl)-3-methyl-1-(4-(morpholinomethyl)phenyl)-1H-pyrazole-5-carboxamide] | < 3 µM | < 3 µM | < 3 µM | 10 to 25 µM | > 25 µM |
| COCCOCCOc1ccc(-n2nc(C)cc2C(=O)NC(Cc2ccccc2)C(=O)C(N)=O)cc1 (stereo not drawn) [Compound 443, N-(4-amino-3,4-dioxo-1-phenylbutan-2-yl)-1-(4-(2-(2-methoxyethoxy)ethoxy)phenyl)-3-methyl-1H-pyrazole-5-carboxamide] | < 3 µM | < 3 µM | < 3 µM | < 10 µM | 10 to 25 µM |
